The source of these data is ChEMBL document CHEMBL1152924, “Synthetic staurosporines via a ring closing metathesis strategy as potent JAK3 inhibitors and modulators of allergic responses” (Bioorg Med Chem Lett, 2009).

Sequence of Tyrosine-protein kinase Lck (P06239 whole entry): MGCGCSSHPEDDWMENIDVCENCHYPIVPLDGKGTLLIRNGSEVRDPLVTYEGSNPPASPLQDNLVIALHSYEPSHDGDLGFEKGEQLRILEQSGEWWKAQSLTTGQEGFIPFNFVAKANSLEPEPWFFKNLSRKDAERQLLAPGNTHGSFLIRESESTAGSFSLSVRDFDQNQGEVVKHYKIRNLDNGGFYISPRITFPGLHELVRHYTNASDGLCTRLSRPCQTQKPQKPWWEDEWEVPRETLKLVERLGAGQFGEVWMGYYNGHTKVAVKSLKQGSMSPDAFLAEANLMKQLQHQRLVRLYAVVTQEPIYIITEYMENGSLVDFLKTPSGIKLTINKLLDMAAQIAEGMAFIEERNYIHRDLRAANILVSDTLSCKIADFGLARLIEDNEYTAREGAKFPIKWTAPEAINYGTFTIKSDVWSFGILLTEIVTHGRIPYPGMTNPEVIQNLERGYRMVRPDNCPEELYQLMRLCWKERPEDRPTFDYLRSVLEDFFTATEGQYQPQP
Sequence of MAP kinase-activated protein kinase 2 (P49137 whole entry): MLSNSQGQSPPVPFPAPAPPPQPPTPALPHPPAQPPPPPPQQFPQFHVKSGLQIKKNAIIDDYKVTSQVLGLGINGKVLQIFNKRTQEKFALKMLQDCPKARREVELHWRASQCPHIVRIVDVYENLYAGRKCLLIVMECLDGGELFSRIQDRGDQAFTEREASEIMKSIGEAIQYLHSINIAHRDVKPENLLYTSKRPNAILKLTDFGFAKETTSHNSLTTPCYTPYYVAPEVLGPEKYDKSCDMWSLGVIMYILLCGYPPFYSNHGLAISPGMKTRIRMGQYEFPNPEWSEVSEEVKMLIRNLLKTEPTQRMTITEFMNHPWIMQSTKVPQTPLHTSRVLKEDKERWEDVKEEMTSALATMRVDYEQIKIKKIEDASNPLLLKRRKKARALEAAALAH

The subject of one experiment is Mus musculus. The experiment is described as follows: Inhibition of ovalbumin-induced IgE production in mouse at 10 mg/kg, ip administered on day 1, 3 and 5 after 1 hr of ovalbumin challenge followed by additional dosing on day 2 and 4 measured on day 8 by ELISA. The experiment is classed as functional. The settings on record: route intraperitoneal. Also on record: scale not given: the % may be the effect or the level left.
`O=C1NCc2c1c1c3ccccc3n3c1c1c2c2ccccc2n1C[C@@H](O)[C@@H](O)C3` (relative stereo): the Activity came to 15%.

The target of the next experiment is Tyrosine-protein kinase SYK (Homo sapiens, UniProt P43405). The experiment is described as follows: Inhibition of SYK-mediated inhibition of biotinylated substrate phosphorylation.
Details: not given
For `CC(=O)/C1=C/Cn2c3ccccc3c3c4c(c5c6ccccc6n(c5c32)C1)C(=O)NC4=O`, the IC50 is above 1000 nM.

With `O=C1NCc2c1c1c3ccccc3n3c1c1c2c2ccccc2n1C[C@@H](O)[C@@H](O)C3` (relative stereo), the IC50 came to 300 nM.

`COC(=O)[C@]1(O)Cn2c3ccccc3c3c4c(c5c6ccccc6n(c5c32)C[C@H]1O)C(=O)NC4=O` (relative stereo) returned an IC50 above 1000 nM.

For a further experiment, the system named is Mus musculus. The experiment is described as follows: Antiinflammatory activity against ovalbumin-induced asthma in BALB/c mouse model assessed as reduction of neutrophil count in broncheovular lavage fluid at 30 mg/kg, ip measured on day 32 after ovalbumin challenge. Also on record: scale not given: the % may be the effect or the level left. The class given is functional. The conditions noted are these: route intraperitoneal.
With `O=C1NCc2c1c1c3ccccc3n3c1c1c2c2ccccc2n1C[C@@H](O)[C@@H](O)C3` (relative stereo), the Activity worked out at 54%.

A further experiment deals with Jurkat. The experiment is described as follows: Antiproliferative activity against JAK3 expressing human resting Jurkat cells. The class given is functional, cell-based.
Details: not given
`CC(=O)/C1=C/Cn2c3ccccc3c3c4c(c5c6ccccc6n(c5c32)C1)C(=O)NC4=O` came in with an IC50 above 10000 nM.

On to `CN(C)C1CCN(C(=O)[C@]2(O)Cn3c4ccccc4c4c5c(c6c7ccccc7n(c6c43)C[C@H]2O)C(=O)NC5=O)C1` (some centres undefined), for which the IC50 was found to be 1600 nM.

As for `O=C1NCc2c1c1c3ccccc3n3c1c1c2c2ccccc2n1C/C=C\C3`, the IC50 was above 10000 nM.

Consider `O=C1NCc2c1c1c3ccccc3n3c1c1c2c2ccccc2n1CC/C=C\CC3`, for which the IC50 is 10000 nM.

Consider `O=C1NC(=O)c2c1c1c3ccccc3n3c1c1c2c2ccccc2n1CC(O)CC3` (centres undefined), for which it took 5670 nM to reach half-maximal inhibition (IC50).

On to `O=C1NCc2c1c1c3ccccc3n3c1c1c2c2ccccc2n1C[C@@H](O)[C@@H](O)C3` (relative stereo), for which half-maximal inhibition (IC50) required 10000 nM.

In turn, `COC(=O)[C@]1(O)Cn2c3ccccc3c3c4c(c5c6ccccc6n(c5c32)C[C@H]1O)C(=O)NC4=O` (relative stereo) came in with an IC50 above 10000 nM.

The next experiment deals with Mast cell. The experiment is described as follows: Inhibition of hexosaminidase release in IgE-stimulated mast cells. The experiment is classed as functional, cell-based.
Details: not given
As to `O=C1NCc2c1c1c3ccccc3n3c1c1c2c2ccccc2n1C[C@@H](O)[C@@H](O)C3` (relative stereo), the IC50 is 55 nM.

Another experiment has as its system T-cell. As to the kind of experiment: Inhibition of IL2-induced PHA-stimulated healthy human T cells proliferation by [3H]thymidine assay. The experiment is classed as functional, cell-based.
Details: not given
In the case of `O=C1NCc2c1c1c3ccccc3n3c1c1c2c2ccccc2n1C[C@@H](O)[C@@H](O)C3` (relative stereo), the IC50 amounted to 100 nM.

Another experiment has as its target Tyrosine-protein kinase Lck (Homo sapiens, UniProt P06239). The experiment is described as follows: Inhibition of LCK-mediated inhibition of biotinylated substrate phosphorylation.
Details: not given
Turning to `CC(=O)/C1=C/Cn2c3ccccc3c3c4c(c5c6ccccc6n(c5c32)C1)C(=O)NC4=O`, the IC50 is above 1000 nM.

With `O=C1NCc2c1c1c3ccccc3n3c1c1c2c2ccccc2n1C[C@@H](O)[C@@H](O)C3` (relative stereo), the IC50 is above 1000 nM.

Turning to `COC(=O)[C@]1(O)Cn2c3ccccc3c3c4c(c5c6ccccc6n(c5c32)C[C@H]1O)C(=O)NC4=O` (relative stereo), the IC50 amounted to 300 nM.

The test system of the next experiment is Mast cell. The experiment is described as follows: Inhibition of LPS-induced TNFalpha release in mast cells. The class given is functional, cell-based.
Details: not given
In turn, `O=C1NCc2c1c1c3ccccc3n3c1c1c2c2ccccc2n1C[C@@H](O)[C@@H](O)C3` (relative stereo) gave an IC50 of 18 nM.

A further experiment concerns Mus musculus. The experiment is described as follows: Inhibition of ovalbumin-induced IgE production in mouse at 30 mg/kg, ip administered on day 1, 3 and 5 after 1 hr of ovalbumin challenge followed by additional dosing on day 2 and 4 measured on day 8 by ELISA. Details: scale not given: the % may be the effect or the level left. The settings on record: route intraperitoneal. The experiment is classed as functional.
With `O=C1NCc2c1c1c3ccccc3n3c1c1c2c2ccccc2n1C[C@@H](O)[C@@H](O)C3` (relative stereo), the Activity is listed as 70%.

The next experiment has as its system Jurkat. As to the kind of experiment: Antiproliferative activity against JAK3 expressing IL2-stimulated human Jurkat cells.
Details: not given
The class given is functional, cell-based.
Regarding `CC(=O)/C1=C/Cn2c3ccccc3c3c4c(c5c6ccccc6n(c5c32)C1)C(=O)NC4=O`, 575 nM corresponded to half-maximal inhibition (IC50).

Take `CN(C)C1CCN(C(=O)[C@]2(O)Cn3c4ccccc4c4c5c(c6c7ccccc7n(c6c43)C[C@H]2O)C(=O)NC5=O)C1` (some centres undefined): the IC50 turned out to be 57 nM.

`O=C1NCc2c1c1c3ccccc3n3c1c1c2c2ccccc2n1C/C=C\C3` returned an IC50 of 111 nM.

The compound `O=C1NCc2c1c1c3ccccc3n3c1c1c2c2ccccc2n1CC/C=C\CC3` showed an IC50 of 432 nM.

In turn, `O=C1NC(=O)c2c1c1c3ccccc3n3c1c1c2c2ccccc2n1CC(O)CC3` (centres undefined) showed an IC50 of 160 nM.

Turning to `O=C1NCc2c1c1c3ccccc3n3c1c1c2c2ccccc2n1C[C@@H](O)[C@@H](O)C3` (relative stereo), 98 nM corresponded to half-maximal inhibition (IC50).

Turning to `COC(=O)[C@]1(O)Cn2c3ccccc3c3c4c(c5c6ccccc6n(c5c32)C[C@H]1O)C(=O)NC4=O` (relative stereo), the IC50 is 23 nM.

For the next experiment, the target named is T1, Tyrosine-protein kinase JAK3 (Homo sapiens, UniProt P52333).
T1 sequence (P52333 whole entry): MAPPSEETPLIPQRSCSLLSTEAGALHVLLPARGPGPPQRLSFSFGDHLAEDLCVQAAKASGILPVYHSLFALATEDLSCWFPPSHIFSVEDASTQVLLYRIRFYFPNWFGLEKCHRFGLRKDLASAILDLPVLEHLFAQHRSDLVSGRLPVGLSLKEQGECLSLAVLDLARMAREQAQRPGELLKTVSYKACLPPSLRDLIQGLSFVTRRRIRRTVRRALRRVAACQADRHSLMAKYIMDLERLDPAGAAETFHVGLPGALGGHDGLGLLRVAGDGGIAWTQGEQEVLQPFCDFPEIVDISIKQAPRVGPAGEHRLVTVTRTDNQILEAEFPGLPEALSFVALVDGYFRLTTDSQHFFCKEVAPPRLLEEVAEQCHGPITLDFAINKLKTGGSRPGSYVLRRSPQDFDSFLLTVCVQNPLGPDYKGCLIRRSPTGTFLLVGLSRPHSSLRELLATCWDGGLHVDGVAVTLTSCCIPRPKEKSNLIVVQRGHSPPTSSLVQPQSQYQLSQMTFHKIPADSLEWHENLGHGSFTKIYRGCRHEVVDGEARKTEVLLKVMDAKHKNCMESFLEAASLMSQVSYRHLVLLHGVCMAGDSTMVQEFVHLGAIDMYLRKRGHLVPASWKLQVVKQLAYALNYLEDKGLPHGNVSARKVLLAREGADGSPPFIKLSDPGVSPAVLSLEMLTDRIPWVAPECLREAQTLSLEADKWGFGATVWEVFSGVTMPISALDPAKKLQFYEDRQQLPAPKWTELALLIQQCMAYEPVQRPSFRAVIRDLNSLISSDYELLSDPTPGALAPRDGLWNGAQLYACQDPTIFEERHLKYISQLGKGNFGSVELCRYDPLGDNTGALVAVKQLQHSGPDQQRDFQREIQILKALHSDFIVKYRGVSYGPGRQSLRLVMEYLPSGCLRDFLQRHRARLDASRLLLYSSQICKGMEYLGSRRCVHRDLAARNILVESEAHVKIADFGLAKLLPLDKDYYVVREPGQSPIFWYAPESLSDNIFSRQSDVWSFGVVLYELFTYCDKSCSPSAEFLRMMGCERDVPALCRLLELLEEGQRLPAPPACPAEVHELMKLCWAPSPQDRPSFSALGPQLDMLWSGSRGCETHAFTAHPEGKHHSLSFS
The experiment is described as follows: Inhibition of JAK3 expressed in insect Sf21 cells assessed as inhibition of biotinylated substrate phosphorylation.
Details: not given
For the compound `CC(=O)/C1=C/Cn2c3ccccc3c3c4c(c5c6ccccc6n(c5c32)C1)C(=O)NC4=O`, the half-inhibitory concentration (IC50) turned out to be 7 nM.

On to `CN(C)C1CCN(C(=O)[C@]2(O)Cn3c4ccccc4c4c5c(c6c7ccccc7n(c6c43)C[C@H]2O)C(=O)NC5=O)C1` (some centres undefined), for which the IC50 was determined as 15 nM.

On to `O=C1NCc2c1c1c3ccccc3n3c1c1c2c2ccccc2n1C/C=C\C3`, for which the IC50 was 39 nM.

In the case of `O=C1NCc2c1c1c3ccccc3n3c1c1c2c2ccccc2n1C[C@@H](O)[C@@H](O)C3` (relative stereo), the IC50 was 6 nM.

As to `COC(=O)[C@]1(O)Cn2c3ccccc3c3c4c(c5c6ccccc6n(c5c32)C[C@H]1O)C(=O)NC4=O` (relative stereo), the concentration for half-maximal inhibition (IC50) was 1 nM.

A further experiment concerns the target MAP kinase-activated protein kinase 2 (Homo sapiens, UniProt P49137). The experiment is described as follows: Inhibition of MK2-mediated inhibition of biotinylated substrate phosphorylation.
Details: not given
`CC(=O)/C1=C/Cn2c3ccccc3c3c4c(c5c6ccccc6n(c5c32)C1)C(=O)NC4=O` registered an IC50 of 540 nM.

`O=C1NCc2c1c1c3ccccc3n3c1c1c2c2ccccc2n1C[C@@H](O)[C@@H](O)C3` (relative stereo) gave an IC50 above 1000 nM.

Take `COC(=O)[C@]1(O)Cn2c3ccccc3c3c4c(c5c6ccccc6n(c5c32)C[C@H]1O)C(=O)NC4=O` (relative stereo): the IC50 is above 1000 nM.

For a further experiment, the system named is Mus musculus. As to the kind of experiment: Antiinflammatory activity against ovalbumin-induced asthma in BALB/c mouse model assessed as reduction in methacoline-induced airway constriction at 30 mg/kg, ip measured on day 32 after ovalbumin challenge. The class given is functional. Also on record: scale not given: the % may be the effect or the level left. The settings on record: route intraperitoneal.
Turning to `O=C1NCc2c1c1c3ccccc3n3c1c1c2c2ccccc2n1C[C@@H](O)[C@@H](O)C3` (relative stereo), the Activity is 90%.

A further experiment relates to Mus musculus. The experiment is described as follows: Antiinflammatory activity against ovalbumin-induced asthma in BALB/c mouse model assessed as reduction of eosinophil count in broncheovular lavage fluid at 30 mg/kg, ip measured on day 32 after ovalbumin challenge. Details: scale not given: the % may be the effect or the level left. The experiment is classed as functional. The settings on record: route intraperitoneal.
Consider `O=C1NCc2c1c1c3ccccc3n3c1c1c2c2ccccc2n1C[C@@H](O)[C@@H](O)C3` (relative stereo), for which the Activity amounted to 54%.

Another experiment addresses T2, Tyrosine-protein kinase ZAP-70 (Homo sapiens, UniProt P43403).
T2 sequence (P43403 whole entry): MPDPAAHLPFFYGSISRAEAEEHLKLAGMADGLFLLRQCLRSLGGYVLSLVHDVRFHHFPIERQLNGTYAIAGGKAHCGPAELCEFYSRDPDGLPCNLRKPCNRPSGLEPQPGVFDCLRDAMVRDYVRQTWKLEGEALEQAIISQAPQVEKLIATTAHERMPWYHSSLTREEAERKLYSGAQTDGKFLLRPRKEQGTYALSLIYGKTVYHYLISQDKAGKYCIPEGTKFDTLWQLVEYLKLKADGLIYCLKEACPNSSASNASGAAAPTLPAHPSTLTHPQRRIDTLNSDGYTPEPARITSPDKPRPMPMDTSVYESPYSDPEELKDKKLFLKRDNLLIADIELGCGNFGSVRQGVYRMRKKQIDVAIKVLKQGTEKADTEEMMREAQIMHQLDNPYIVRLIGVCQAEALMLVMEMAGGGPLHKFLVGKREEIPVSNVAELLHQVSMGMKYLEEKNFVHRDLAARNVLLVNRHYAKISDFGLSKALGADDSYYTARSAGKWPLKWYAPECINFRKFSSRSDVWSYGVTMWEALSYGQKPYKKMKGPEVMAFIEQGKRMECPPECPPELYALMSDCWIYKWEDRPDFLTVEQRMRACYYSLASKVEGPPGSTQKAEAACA
The experiment is described as follows: Inhibition of Zap70-mediated inhibition of biotinylated substrate phosphorylation.
Details: not given
As to `CC(=O)/C1=C/Cn2c3ccccc3c3c4c(c5c6ccccc6n(c5c32)C1)C(=O)NC4=O`, the IC50 is above 1000 nM.

`O=C1NCc2c1c1c3ccccc3n3c1c1c2c2ccccc2n1C[C@@H](O)[C@@H](O)C3` (relative stereo) showed an IC50 of 200 nM.

In turn, `COC(=O)[C@]1(O)Cn2c3ccccc3c3c4c(c5c6ccccc6n(c5c32)C[C@H]1O)C(=O)NC4=O` (relative stereo) returned an IC50 above 1000 nM.
